Assay results published in patent US6372884B1, “Biologically active compounds and methods of constructing and using the same” (priority 1987, dated 2002).
Ends that are not written are not given here.

Key:
reovirus type 3 [1] = system: reovirus type 3; set-up: species or system mice; conditions: mouse, in vivo
reovirus type 3 [2] = system: reovirus type 3; set-up: species or system Balb/c mice; conditions: mouse, in vivo
type 1 virus = system: type 1 virus; set-up: species or system Balb/c mice; conditions: mouse, in vivo
type 3 virus = system: type 3 virus; set-up: species or system Balb/c mice; conditions: mouse, in vivo
reovirus type 1 [3] = system: reovirus type 1; set-up: species or system Balb/c mice; conditions: mouse, in vivo
reovirus type 3 [4] = system: reovirus type 3; set-up: species or system Balb/c mice; conditions: mouse, in vivo; remark: listed apart in the source
[5] = system: neutralizing monoclonal antibody 9BG5; type: binding, mouse
reovirus type 1 [6] = system: reovirus type 1; set-up: species or system Balb/c mice; conditions: mouse, in vivo; remark: listed apart in the source
Thy2 molecules = target: T1, Thy2 molecules (Mus musculus, UniProt P01831); experiment: Flow cytometry: inhibition of H013.4 binding (specificity); set-up: species or system murine; conditions: FIG. 30
T1 sequence (P01831 20-131): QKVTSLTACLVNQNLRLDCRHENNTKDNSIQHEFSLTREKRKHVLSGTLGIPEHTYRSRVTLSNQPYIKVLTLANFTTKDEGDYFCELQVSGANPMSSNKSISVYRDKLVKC

9B.G5 [7] = experiment: Solid phase RIA: binding of 9B.G5 to peptide coated plates; conditions: FIG. 24
Method: RIA plates (Dynatech Laboratories, Alexandria, Va.) were coated with peptides by evaporation of varying amounts of peptides in distilled water overnight at 37° C. The wells were washed with PBS, blocked with 2% bovine serum albumin (BSA) in PBS with 0.1% NaN3, and washed with PBS. Partially purified 9BG5 [(NH4)2SO4 precipitate] was added at varying dilutions for greater than 1 hour at 37° C. The wells were washed in PBS and 50,000-100,000 counts per minute of ^125I-labelled goat anti-mouse light chain (anti-k & anti-[Sigma] iodinated by chloramine T) was added per well in 1% BSA in PBS for 1-2 hours at 37° C. The wells were decanted, washed extensively, and CPM bound determined. Specific CPM bound was determined by subtracting the CPM bound to uncoated wells from the CPM bound to peptide coated wells.
To assess the optimal conformation for binding of the VL peptide analogs, they were utilized to coat radioimmunoassay (RIA) plates, and 9B.G5 bound by standard RIA procedures.

Reo3R = experiment: Inhibition of 125I-labelled reovirus type 3 binding to the Reo3R on cells
Method: The cells were centrifuged and washed twice in 1% BSA/PBS/0.1% NaN3. 5×10^4 cells or 1.25×10^6 R1.1 cells in 50 μl were distributed in 2% BSA/PBS/NaN3 blocked RIA wells. For peptide studies, 50 μl of inhibitor was added in dH2O to the cells. Following a 30 minute incubation, L cells and ^125I-labelled reovirus type 3 were combined for an additional 30 minutes at 37° C. The cells were spun, washed three times in ice cold PBS, and specific CPM bound was determined as noted above. Percent inhibition of binding was calculated by the formulae above.
To further evaluate the interaction of VLC9C16 peptide with the Reo3R, the peptide was utilized to compete with ^125I-labelled reovirus type 3 for binding to the Reo3R.

9B.G5 [8] = experiment: Competitive RIA: inhibition of 9B.G5 - 87.92.6 interaction; type: binding
9B.G5 [9] = experiment: Competitive RIA: inhibition of 9B.G5 - reovirus type 3 interaction; type: binding
[10] = Size-exclusion chromatography of oxidized peptides (Sephadex G-10); type: physicochemical; conditions: reduced versus non-reduced peptides
[11] = Rate of loss of sulfhydryls on air oxidation (Ellman determination); type: physicochemical; conditions: 2 mg/ml in 0.1 M NaHCO3, 37° C., exposed to air, FIG. 23
[12] = system: reovirus type 3 receptor (Reo3R); experiment: Flow cytometry: inhibition of 87.92.6 binding to cells; set-up: species or system murine; conditions: FIG. 29
Method: The ability of peptides to inhibit antibody binding to cells was determined by preincubation of the cells with varying amounts of inhibitor (in 100 μl dH2O) for between 30 minutes and 1 hour at 23° C. Cells (either L cells or R1.1 cells) were washed in 1% BSA/PBS/0.1% NaN3, and resuspended at 10^7/ml. 100 μl of cells were then added in 1% BSA/PBS/0.1% NaN3, and the incubation continued for 20-30 minutes. Antibodies (5 or 10 μl were added for an additional 20 minutes at 23° C. Ice cold 1% BSA/PBS/0.1% NaN3, was added, the cells centrifuged and washed prior to counterstaining with a 1:100 dilution of FITC goat anti-mouse Ig (Fisher Scientific) in 1% BSA/PBS/0.1% NaN3. The cells were washed twice and fluorescence intensity determined. Inhibition of binding was calculated as noted above with mean channel number utilized in place of CPM.
To assess the affinity of the cyclic peptides for the reovirus type 3 receptor (Reo3R), they were utilized in a series of assays to inhibit binding of 87.92.6 or control antibodies to specific receptors. […] The inhibition by VLC9C16 peptide was specific as binding of isotype matched monoclonal H013.4 to Thy2 molecules was not inhibited by VLC9C16 peptide (FIG. 30). Thus, VLC9C16 peptide is a specific Reo3R ligand with enhanced affinity compared with its linear analog.

[…]-infected H9 cells = Flow cytometry: mouse antisera binding to infected H9 cells; type: in vivo; conditions: subcutaneous immunization of mice
recombinant HIV-1 gp120 = conditions: rabbits immunized with peptide conjugated to KLH, FIG. 21
Method: Antisera was obtained and tested for binding to recombinant HIV-1 gp120 peptide-coated radioimmunoassay plates (using 1 μg/ml gp120 at 50 μl/well, in 0.1 M NaHCO3 and incubating overnight at 4° C.). The indicator antibody was ^125I-labelled anti-rabbit immunoglobulin antibody.

HIV [13] = experiment: Infectivity assays with rabbit antisera; conditions: in vivo
[14] = system: recombinant glycosylated gp120; conditions: radiolabelled immunoprecipitations
Method: The immunogenicity of B138 was determined by subcutaneous immunization of mice and rabbits.

HIV [15] = experiment: Blocking of virus binding by gp120 421-438 peptide
Excerpt: A molecular model for the region 413-455 (FIG. 19) may be constructed based upon these structural concepts, utilizing a light-chain antibody structure known as REI (Bernstein et al., 1977, Mol. Biol. 112:535-542) as a template for the first and third hypervariable region, in which the cysteines in gp120 at positions 418 and 445 form a disulfide bridge. The cysteines are positionally conserved with respect to each other as in the light chain. The model may be energy optimized using molecular mechanics and dynamics. […] The in vitro biological activity of the 421-438 peptide fragment in modulating CD4-depending cellular function and this fragment's ability to induce an anti-HIV response is as described below.

Gln Ser Met --- Trp Ile Gly Ile Val Ser Tyr Ser Gly Ser Gly Leu Asn (WIGIVSYSGSGLN; N-terminal Gln-Ser-Met; printed: Trp Ile Gly Ile Val Ser Tyr Ser Gly Ser Gly Leu Asn) [reo peptide, amino acids 317-332 in the type 3 viral hemagglutinin]
proliferative response to reovirus type 3 in spleen cells from immunized mice (reovirus type 3 [1]): type specific proliferative response
binding of immune serum to type 3 virus coated plates (reovirus type 3 [2]): significant binding
inhibition of plaque formation by type 1 virus by immune serum (type 1 virus): not type 1
inhibition of plaque formation by type 3 virus by immune serum (type 3 virus): specific inhibition of plaque formation
binding of immune serum to type 1 virus coated plates (reovirus type 1 [3]): significant binding
neutralization of L-cell lysis by reovirus type 3 by immune serum (reovirus type 3 [4]): specifically neutralized
specific binding of 9BG5 to peptide coated wells [5]: Strong reproducible binding
neutralization of L-cell lysis by reovirus type 1 by immune serum (reovirus type 1 [6]): not type 1

KPGKTNKLCIYSGSTCQ (cysteine pairing not given here) [VLC9C16 peptide]
inhibition of binding of isotype matched monoclonal H013.4 (Thy2 molecules): not inhibited
binding of 9B.G5 to peptide on solid phase RIA (9B.G5 [7]): higher than binding to the other cyclic VL peptide analogs
affinity for the Reo3R by competition with 125I-labelled reovirus type 3 (Reo3R; FIG. 31): higher affinity for the Reo3R than VLC8C16 peptide or VLC10C16 peptide
increase in affinity for the Reo3R compared with linear VL peptide (Reo3R; competition with 125I-labelled reovirus type 3): 40 fold
increase in binding affinity for 9B.G5 compared with linear analog of VL peptide (9B.G5 [8]; inhibition of 9B.G5 - 87.92.6 interaction, FIG. 26): 40 fold
inhibition of 9B.G5 - 87.92.6 interaction (9B.G5 [8]; liquid phase assay, FIGS. 25 and 26): higher affinity of interaction compared with the other cyclic peptide variants
inhibition of binding of 125I-labelled reovirus type 3 to 9B.G5, compared with other cyclic peptides (9B.G5 [9]; FIG. 27): higher affinity than the other cyclic peptides
inhibition of binding of 125I-labelled reovirus type 3 to 9B.G5, compared with linear VL and dimeric VLSH peptide (9B.G5 [9]; FIG. 28): higher affinity than linear VL peptide, and similar affinity on a molar basis as dimeric VLSH peptide
molecular form following oxidation by size-exclusion chromatography [10]: remained chiefly as monomers
rate of loss of sulfhydryls [11]: most rapid loss of sulfhydryls
inhibition of binding of 87.92.6 to murine L cells ([12]; L cells): inhibited binding
inhibition of binding of 87.92.6 to R1.1 thymoma cells ([12]; R1.1 cells): inhibited binding

KQFINMWQEVGKAMYAPP [B138]
binding of mouse antisera to infected H9 cells ([…]-infected H9 cells): preferentially bind
level of antiserum antibody bound to gp120 coated plates (recombinant HIV-1 gp120): lower levels of bound antibody
elicitation of neutralizing antibodies (infectivity assays with rabbit sera) (HIV [13]): could elicit neutralizing antibodies
immunoprecipitation of recombinant glycosylated gp120 by rabbit antisera [14]: weakly
blocking of virus binding (HIV [15]): shown to block virus binding
